{
  "source": "patent US20220267394A1",
  "about": "“COMPOUNDS FOR INDUCING TISSUE FORMATION AND USES THEREOF” (HISTIDE AG, priority 2015, published 2022)",
  "note": "Where no end group is shown, it is not given here.",
  "data": [
    {"test_system": "hMSCs", "test": "Loss of stemness: STRO-1 expression by immunostaining", "assay_type": "cell-based, human", "settings": "Table 6, previously reported peptides in solution, 400 ng/mL", "description": "(§1) The cells were first fixed for 20 min with 4% paraformaldehyde/PBS at 4° C. After fixation, the cells were permeabilized in PBS containing 1% Triton X-100 for 15 min. Runx2, Osterix, Stro-1, Vinculin, Phalloidin, Osteopontin, Sox2, Sox9 antibodies were visualized by treating the cells with 1% (v/v) specific monoclonal antibodies for 1 hour at 37° C. Then the samples were incubated with Alexa Fluor® 568 or 647 (F(ab′)2 fragment of IgG(H+L)) during 30 min at room temperature. The cell nuclei were counterstained in 20 ng/mL DAPI for 10 min at room temperature.\n(§2) For this type of quantification the freeware image analysis ImageJ® software was used. The raw image was first converted to an 8-bit file, and then the unsharp mask feature was used (settings 1:0.2) to remove the image background (rolling ball radius 10). After smoothing, the resulting image, which appears similar to the original photomicrograph but with minimal background, was then converted to a binary image by setting a threshold. Threshold values were determined empirically by selecting a setting, which gave the most accurate binary image for a subset of randomly selected photomicrographs. The cell area was determined by manual delineation on raw fluorescent images. Total contact area and mean contact area per cell were calculated by “analyse particules” in ImageJ®. A minimum of 30 cells per condition were analyzed. Stro-1, CD-34+, and CD-105 expressions were determined using this procedure.\n(§3) hMSCs were cultured on conventional cell culture plastic plates with or without the presence in the cell culture media of different GFR-binding compounds as described herein (SEQ ID NO: 50 to 88) in solution. […] This was probed by Stro-1 immunostaining after cell fixation as described in the Methods section. The quantification of Stro-1 positive contact numbers and areas was performed as described in the Methods section. A minimum of 30 cells per condition were analyzed. Stro-1 positive marrow cells are multipotential and capable of differentiating into multiple mesenchymal lineages including stromal cells with a phenotype resembling vascular smooth muscle cells that can support hematopoiesis, adipocytes, osteoblasts, and chondrocytes.\n(§4) Using the method detailed in the description, the RMSD of 57 previously reported peptide sequences have been determined (Table 6) and correlated with the expression of STRO-1 in solution. […] One should note that it is commonly admitted that the expression of STRO-1 in a cell is indicative of a cell that is in a substantially non-differentiated state and the decrease of its expression of at least about 20% is indicative of a cell that has started a process of differentiation but which may not result in the differentiation of the cell. A decrease of more than 50% would be indicative of the presence of a significant shift towards a differentiated state. A decrease of more than 70% would be indicative of the presence of a very important shift towards a differentiated state. A sustained decrease (e.g. for at least 96 h) of more than 50% or 70% would be indicative of the presence of an even more important shift towards a differentiated state.\n(§5) Likewise, using the method detailed in the description, the RMSD of 75 GFR-binding peptide sequence representatives of the invention have been determined (Table 8) and correlated with the expression of STRO-1. SEQ ID NO: 1 to 49 were tested in combination with a bioactive carrier as defined above in the Examples Section (i.e. titanium, ceramics, collagen, etc. . . . ), whereas SEQ ID NO: 2242 to 2267 were tested in solution.", "units": {"STRO-1 expression (%)": "%"}, "values": [
      {"substance": "2190 (VHLLKPHAVPKACCAPTKLSATSVLYYDSSNNVILRKHRNMVVRACGCH; Peptide reported in US5688678, SEQ ID NO:8) [compound 2190]", "STRO-1 expression (%)": 88},
      {"substance": "2159 (PIIYYVGRNVRVEQLSNMVVRA; Peptide reported in US5436228, SEQ ID NO:14) [compound 2159]", "STRO-1 expression (%)": 92},
      {"substance": "2168 (MSRVLFEPLTFLQTGSGLPDEKTLG; Peptide reported in US20080081768, SEQ ID NO:28800) [compound 2168]", "STRO-1 expression (%)": 94},
      {"substance": "2201 (KIPKPSSAPTELSAISMC; Peptide reported in WO2009151288, SEQ ID NO:7) [compound 2201]", "STRO-1 expression (%)": 78},
      {"substance": "2183 (TPTVVSATSL; Peptide reported in US20150153356, SEQ ID NO:51419) [compound 2183]", "STRO-1 expression (%)": 98},
      {"substance": "2194 (KGSEYEKLVVSGITQVYQSSLSWHGCKSCCEVQVXNLXILIRLYDVHYYN; Peptide reported in US20040172684, SEQ ID NO:47782; MOD_RES (35), (38): Xaa is A) [compound 2194]", "STRO-1 expression (%)": 88},
      {"substance": "2174 (CVTKPLSSLLFPNWNTTTTPTPP; Peptide reported in WO2013040142, SEQ ID NO:642255) [compound 2174]", "STRO-1 expression (%)": 92},
      {"substance": "2166 (NEVLRFCGIQVPEGDEPLT; Peptide reported in WO2013040142, SEQ ID NO:101213) [compound 2166]", "STRO-1 expression (%)": 98},
      {"substance": "2206 (CIPKPSSAPTELSAISMLYL; Peptide reported in WO2009151288, SEQ ID NO:2) [compound 2206]", "STRO-1 expression (%)": 83},
      {"substance": "2172 (PNYSVPAGNKPLSERE; Peptide reported in WO2013040142, SEQ ID NO:543064) [compound 2172]", "STRO-1 expression (%)": 95},
      {"substance": "2207 (CKIPKPSSAPTELSAISMLYL; Peptide reported in WO2009151288, SEQ ID NO:1) [compound 2207]", "STRO-1 expression (%)": 78},
      {"substance": "2203 (TCCVPELSAISMLYLDEN; Peptide reported in US5496552, SEQ ID NO:5) [compound 2203]", "STRO-1 expression (%)": 84},
      {"substance": "2185 (LGIAAIIFLQQVPAAFSATSPPG; Peptide reported in WO2013040142, SEQ ID NO:1139935) [compound 2185]", "STRO-1 expression (%)": 97},
      {"substance": "2193 (DKPEESSSTPTHAQCICSSLSEAIVSSVLSTRLVLSQISLTRAKRAFE; Peptide reported in US20130333061, SEQ ID NO:139889) [compound 2193]", "STRO-1 expression (%)": 87},
      {"substance": "2186 (SVPAVCSATSATGPYSSVTVTSWPSIVATGGTT; Peptide reported in EP1687419, SEQ ID NO:42) [compound 2186]", "STRO-1 expression (%)": 92},
      {"substance": "2184 (SATSRLALSDVPAELAA; Peptide reported in WO2013040142, SEQ ID NO:729730) [compound 2184]", "STRO-1 expression (%)": 98},
      {"substance": "2170 (NPGASASPCCVSQDLEPLPIL; Peptide reported in JP06025288, SEQ ID NO:8) [compound 2170]", "STRO-1 expression (%)": 86},
      {"substance": "2173 (TKPLSSLLFPNWNTTTTPTPPRP; Peptide reported in WO2013040142, SEQ ID NO:866827) [compound 2173]", "STRO-1 expression (%)": 91},
      {"substance": "2213 (KPCCAPTQLSAISVLYFDDSSNVILKKYRNMVVRACGCR; Peptide reported in US20050250936, SEQ ID NO:123) [compound 2213]", "STRO-1 expression (%)": 80}
    ]},
    {"test_system": "hMSCs", "test": "Loss of stemness: STRO-1 expression by immunostaining", "assay_type": "cell-based, human", "settings": "Table 8, SEQ ID NO: 1 to 49 tested in combination with a bioactive carrier (titanium, ceramics, collagen, etc.)", "description": "as §1, §2, §3, §4, §5", "units": {"STRO-1 expression (%)": "%"}, "values": [
      {"substance": "24 (GTPGPPSSAPTQLSATSVLYYDDSSNVILRKHRMIVKS; GFR-binding peptide) [compound 24]", "STRO-1 expression (%)": 21},
      {"substance": "28 (GTPGPAPTKLSAISMLYLDSSNNVILKKYR; GFR-binding peptide) [compound 28]", "STRO-1 expression (%)": 19},
      {"substance": "46 (CPARLSPISLLYIDAANNVVYKQYEDM; GFR-binding peptide) [compound 46]", "STRO-1 expression (%)": 19},
      {"substance": "2 (CKVGKASSVPTKLSAISTLYLDDMGVPTLKNYQNMVVRASGSH; not fully specified; ends and bridges not checked) [compound 2]", "STRO-1 expression (%)": 21},
      {"substance": "17 (CASAAPSSVPQKLNAISMLYFVGRKPKVLKKYRMIVRS; not fully specified; ends and bridges not checked) [compound 17]", "STRO-1 expression (%)": 21},
      {"substance": "45 (CAAPASSSVPARLSPISLLYIDAANNVVYKQYEDM; not fully specified; ends and bridges not checked) [compound 45]", "STRO-1 expression (%)": 24},
      {"substance": "47 (CAAAPASXXVPARLSPISILYIAAAYKQYEDM; GFR-binding peptide; MOD_RES (8), (9): Xaa is C or S) [compound 47]", "STRO-1 expression (%)": 18},
      {"substance": "43 (CAAPASSSVPARLSPISILYIDAANNVVYKQYEDMVVEASG; not fully specified; ends and bridges not checked) [compound 43]", "STRO-1 expression (%)": 27},
      {"substance": "1 (CKVPKPSSAPTQLSAISTLYLDEYDKVVLKNYQNMVVRA; not fully specified; ends and bridges not checked) [compound 1]", "STRO-1 expression (%)": 26},
      {"substance": "25 (GTPGPAPTQLSPISVLYKDDSSNVILKYHY; GFR-binding peptide) [compound 25]", "STRO-1 expression (%)": 23},
      {"substance": "16 (CKASSVPTELSPISTLYKDENEKVVLKYHYDMVVEGSGSR; not fully specified; ends and bridges not checked) [compound 16]", "STRO-1 expression (%)": 18},
      {"substance": "35 (GTPGPRNVQCRPTQVQLSAISTLYLAAALKNYQTLE; GFR-binding peptide) [compound 35]", "STRO-1 expression (%)": 28},
      {"substance": "36 (CKIPKASSVPTELEPLPIVYYVGRKPKVEQLSNMIVRS; not fully specified; ends and bridges not checked) [compound 36]", "STRO-1 expression (%)": 19},
      {"substance": "11 (CPKPSSAPTQLNAISMLYFGGGGGGGLKKYRNMVVRA; GFR-binding peptide) [compound 11]", "STRO-1 expression (%)": 31},
      {"substance": "3 (CASASPSSVSQDLSAISTLYLIGKTPKILKNYQMIVKSSKSS; not fully specified; ends and bridges not checked) [compound 3]", "STRO-1 expression (%)": 18},
      {"substance": "26 (GTPGPASSAVSQELSAISMLYLGGGLKNYQDM; GFR-binding peptide) [compound 26]", "STRO-1 expression (%)": 22},
      {"substance": "13 (CSIPKASSVPTELSATSVLYYDEYDEKVVLRKHEMVVEG; not fully specified; ends and bridges not checked) [compound 13]", "STRO-1 expression (%)": 23}
    ]},
    {"test_system": "hMSCs", "test": "Loss of stemness: STRO-1 expression by immunostaining", "assay_type": "cell-based, human", "settings": "Table 8, SEQ ID NO: 2242 to 2267 tested in solution", "description": "as §1, §2, §3, §4, §5", "units": {"STRO-1 expression (%)": "%"}, "values": [
      {"substance": "2246 (APTGGSATSMLYYDKGVVTYLRKHRGGVVK; GFR-binding peptide) [compound 2246]", "STRO-1 expression (%)": 23},
      {"substance": "2265 (AVPKASSVPQKLEPLTILYYDSSNNVIEQLSNNMVKSASGSH; GFR-binding peptide) [compound 2265]", "STRO-1 expression (%)": 21},
      {"substance": "2245 (APTLLNAISMLYFNDKQQIILKKYRLLVVR; GFR-binding peptide) [compound 2245]", "STRO-1 expression (%)": 22},
      {"substance": "2255 (SRVAARSVKMAKVGGGGGGGKEVQVAAEEH; GFR-binding peptide) [compound 2255]", "STRO-1 expression (%)": 31},
      {"substance": "2253 (VPQQQEPLTTLYYDEYDKVVEQLSNQQVKS; GFR-binding peptide) [compound 2253]", "STRO-1 expression (%)": 18},
      {"substance": "2252 (VPQAAEPLPMLYYDKGVVTYEQLSNAAVRS; GFR-binding peptide) [compound 2252]", "STRO-1 expression (%)": 19}
    ]}
  ]
}
